Laboratory results: US20210040074A1 (The United States of America,as represented by the …, priority 2018, published 2021)

Key:
D5 [1] = molecular target: T1, D5 (Homo sapiens, UniProt P21918); test: D5R β-arrestin recruitment assay (DiscoverX PathHunter, CHO cells); type: cell-based; set-up: host or cells: CHO-K1; conditions: for D5 Beta-Arrestin: DA + 50 μM PAM, Fold Change EC50: fold change of dopamine EC50, 50 μM compound
Experimental: (§1) β-arrestin Recruitment Assay. […] Following 18-24 h of incubation, the cells were treated with the indicated concentrations of compound in PBS buffer containing 0.2 mM sodium metabisulfite, and incubated at 37° C. for 90 min. DiscoverX reagent was added to cells according to the manufacturer's protocol, followed by a 60 min incubation in the dark at room temperature. Luminescence was measured on a Hamamatsu FDSS μ-Cell reader (Hamamatsu, Bridgewater, N.J.) and data were collected using the FDSS software.
Each PAM was also examined in the absence of DA as an agonist, as indicated.

human D1R = human D1R (Homo sapiens, UniProt P21728); test: D1R β-arrestin recruitment assay (DiscoverX PathHunter, CHO-K1 cells)
Description: The DiscoverX PathHunter β-Arrestin Assay was used to measure β-arrestin reuitment to the D1R following the manufacturer's instructions.

D4R = molecular target: T2, D4R (Homo sapiens, UniProt P21917); test: D4 β-arrestin recruitment assay (DiscoverX PathHunter, CHO-K1 cells); type: cell-based; set-up: inferred from the same PathHunter system described for D1R and D5R; host or cells: CHO-K1; conditions: for D4 Beta-Arrestin: DA + 50 μM PAM, Fold Change EC50: fold change of dopamine EC50, 50 μM compound
T2 sequence (P21917 1-419): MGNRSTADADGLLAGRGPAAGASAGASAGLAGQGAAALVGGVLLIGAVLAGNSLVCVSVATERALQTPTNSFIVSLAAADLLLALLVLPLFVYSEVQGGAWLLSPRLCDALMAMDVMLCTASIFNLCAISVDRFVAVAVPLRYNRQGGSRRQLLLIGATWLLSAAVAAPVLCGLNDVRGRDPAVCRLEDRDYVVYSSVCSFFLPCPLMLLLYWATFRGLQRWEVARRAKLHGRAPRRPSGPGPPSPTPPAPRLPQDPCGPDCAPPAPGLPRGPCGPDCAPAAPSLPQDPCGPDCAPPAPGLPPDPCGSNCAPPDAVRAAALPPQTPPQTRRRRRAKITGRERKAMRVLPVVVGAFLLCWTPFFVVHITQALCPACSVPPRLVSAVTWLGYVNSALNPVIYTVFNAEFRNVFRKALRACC
Experimental: as §1, with “Assay. Agonist-mediated recruitment of β-arrestin-2 to all five DARs was determined using the DiscoveRx PathHunter complementation assay (DiscoverX Inc, Fremont, Calif.), as previously described (Free, et. al., 2014; Conroy, et. al., 2015).” for “Assay.”

D5 [2] = molecular target: T1, D5; test: D5 cAMP assay; conditions: fold change of dopamine EC50, 50 μM compound

T1 sequence (P21918 whole entry): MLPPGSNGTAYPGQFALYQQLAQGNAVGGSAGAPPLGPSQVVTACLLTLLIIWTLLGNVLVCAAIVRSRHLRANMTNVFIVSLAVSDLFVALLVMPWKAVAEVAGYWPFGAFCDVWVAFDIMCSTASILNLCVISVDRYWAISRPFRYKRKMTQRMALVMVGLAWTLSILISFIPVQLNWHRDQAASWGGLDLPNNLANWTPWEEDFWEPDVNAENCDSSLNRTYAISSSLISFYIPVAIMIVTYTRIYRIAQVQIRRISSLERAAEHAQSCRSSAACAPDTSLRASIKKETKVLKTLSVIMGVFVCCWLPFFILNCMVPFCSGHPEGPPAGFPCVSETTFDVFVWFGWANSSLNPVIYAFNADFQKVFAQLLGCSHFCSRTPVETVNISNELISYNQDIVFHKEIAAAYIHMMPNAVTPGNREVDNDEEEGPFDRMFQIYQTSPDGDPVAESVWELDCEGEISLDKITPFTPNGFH
Sequence of human D1R (P21728 whole entry): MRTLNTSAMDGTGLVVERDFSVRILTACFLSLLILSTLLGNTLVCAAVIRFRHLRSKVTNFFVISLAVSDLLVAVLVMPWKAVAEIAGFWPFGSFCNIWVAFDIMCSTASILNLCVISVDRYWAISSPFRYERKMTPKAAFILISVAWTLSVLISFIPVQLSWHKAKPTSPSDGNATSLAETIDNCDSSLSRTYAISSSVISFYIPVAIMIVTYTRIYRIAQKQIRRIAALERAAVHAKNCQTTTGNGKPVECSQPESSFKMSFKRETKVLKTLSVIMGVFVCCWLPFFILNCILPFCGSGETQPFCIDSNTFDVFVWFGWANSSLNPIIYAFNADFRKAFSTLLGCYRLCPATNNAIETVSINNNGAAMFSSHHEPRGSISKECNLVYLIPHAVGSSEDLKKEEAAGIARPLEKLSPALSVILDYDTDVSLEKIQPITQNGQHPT

SMILES	D5 Beta-Arrestin: DA + 50 μM PAM, Fold Change EC50 (D5 [1])	D4 Beta-Arrestin: DA + 50 μM PAM, Fold Change EC50 (D4R)	further results
Cn1c2ccccc2c(=O)c2c(=O)n(C3CCCCCC3)c(C3CCCCC3)nc21			Dopamine D5-β-arrestin Assay: DA + 50 μM PAM, Fold Change EC50 (D5 [1]; Table 6, 50 μM compound): 1.71; Dopamine D1-β-arrestin Assay: DA + 50 μM PAM, Fold Change EC50 (human D1R; Table 5, 50 μM compound): 3.85; Dopamine D4-β-arrestin Assay: DA + 50 μM PAM, Fold Change EC50 (D4R; Table 7, 50 μM compound): 0.95
Oc1cc2c(cc1O)[C@H]1c3ccccc3CN[C@@H]1CC2 (racemic) [dihydrexidine, reference compound]			Emax (human D1R; CHO-K1, read-out: dihydrexidine Emax): 70.5%
Cc1ccc(-n2c(C3CCCCC3)nc3c(c(=O)c4ccccc4n3C)c2=O)cc1 [Compound 2]	2.64	0.64	
Cn1c2ccccc2c(=O)c2c(=O)n(-c3ccc(Cl)cc3)c(C3CCCCC3)nc21 [Compound 3]	2.03	0.61	
COc1ccc(-n2c(C3CCCCC3)nc3c(c(=O)c4ccccc4n3C)c2=O)cc1Cl [Compound 4]	0.77	0.61	
Cc1ccc(-n2c(CC(C)C)nc3c(c(=O)c4ccccc4n3C)c2=O)cc1 [Compound 5]	1.32	1.06	D5 cAMP: DA + 50 μM PAM, Fold Change EC50 (D5 [2]): 2.23; PAM activity at the D5 receptor (D5 [1]; 50 μM compound): none of these analogs have PAM activity; fold change of dopamine EC50 for β-arrestin recruitment to D5R (D5 [1]; 50 μM compound): 1.3 fold
CC(C)Cc1nc2c(c(=O)c3ccccc3n2C)c(=O)n1-c1ccc(Cl)cc1 [Compound 6]	0.81	0.47	PAM activity at the D5 receptor (D5 [1]; 50 μM compound): none of these analogs have PAM activity; fold change of dopamine EC50 for β-arrestin recruitment to D5R (D5 [1]; 50 μM compound): 0.8 fold
CC(C)Cc1nc2c(c(=O)c3ccccc3n2C)c(=O)n1-c1cccc(Cl)c1 [Compound 7]	0.80	0.57	PAM activity at the D5 receptor (D5 [1]; 50 μM compound): none of these analogs have PAM activity; fold change of dopamine EC50 for β-arrestin recruitment to D5R (D5 [1]; 50 μM compound): 0.8 fold
COc1ccc(-n2c(CC(C)C)nc3c(c(=O)c4ccccc4n3C)c2=O)cc1Cl [Compound 8]	1.53	1.20	
COc1ccc(-n2c(CC(C)C)nc3c(c(=O)c4ccccc4n3C)c2=O)cc1 [Compound 9]	2.93	1.58	
Cc1ccc(-n2c(C3CCCC3)nc3c(c(=O)c4ccccc4n3C)c2=O)cc1 [Compound 10]	3.11	1.33	
COc1ccc(-n2c(C3CCCC3)nc3c(c(=O)c4ccccc4n3C)c2=O)cc1 [Compound 11]	4.10	1.46	
Cn1c2ccccc2c(=O)c2c(=O)[nH]c(C3CCCC3)nc21 [Compound 12]	0.66	0.71	
Cn1c2ccccc2c(=O)c2c(=O)n(-c3cccc(Cl)c3)c(C3CCCC3)nc21 [Compound 14]	0.91	1.90	
COc1ccc(-n2c(C3CCCC3)nc3c(c(=O)c4ccccc4n3C)c2=O)cc1Cl [Compound 15]	1.51	1.33	
Cn1c2ccccc2c(=O)c2c(=O)n(-c3ccc(Cl)cc3)c(CC3CCCCC3)nc21 [Compound 17]	1.09	1.38	D5 cAMP: DA + 50 μM PAM, Fold Change EC50 (D5 [2]): 1.43
Cn1c2ccccc2c(=O)c2c(=O)n(-c3cccc(Cl)c3)c(CC3CCCCC3)nc21 [Compound 18]	1.35	1.57	D5 cAMP: DA + 50 μM PAM, Fold Change EC50 (D5 [2]): 0.34
